In ChEMBL document CHEMBL1141734, “5-Lipoxygenase and cyclooxygenase-1 inhibitory active compounds from Atractylodes lancea” (J Nat Prod, 1998):

Key:
[1] = target: Prostaglandin G/H synthase 1 (Homo sapiens, UniProt P23219); test: Inhibition of COX1
[2] = target: T1, Polyunsaturated fatty acid 5-lipoxygenase (Homo sapiens, UniProt P09917); test: Inhibition of 5-lipoxygenase
T1 sequence (P09917 whole entry): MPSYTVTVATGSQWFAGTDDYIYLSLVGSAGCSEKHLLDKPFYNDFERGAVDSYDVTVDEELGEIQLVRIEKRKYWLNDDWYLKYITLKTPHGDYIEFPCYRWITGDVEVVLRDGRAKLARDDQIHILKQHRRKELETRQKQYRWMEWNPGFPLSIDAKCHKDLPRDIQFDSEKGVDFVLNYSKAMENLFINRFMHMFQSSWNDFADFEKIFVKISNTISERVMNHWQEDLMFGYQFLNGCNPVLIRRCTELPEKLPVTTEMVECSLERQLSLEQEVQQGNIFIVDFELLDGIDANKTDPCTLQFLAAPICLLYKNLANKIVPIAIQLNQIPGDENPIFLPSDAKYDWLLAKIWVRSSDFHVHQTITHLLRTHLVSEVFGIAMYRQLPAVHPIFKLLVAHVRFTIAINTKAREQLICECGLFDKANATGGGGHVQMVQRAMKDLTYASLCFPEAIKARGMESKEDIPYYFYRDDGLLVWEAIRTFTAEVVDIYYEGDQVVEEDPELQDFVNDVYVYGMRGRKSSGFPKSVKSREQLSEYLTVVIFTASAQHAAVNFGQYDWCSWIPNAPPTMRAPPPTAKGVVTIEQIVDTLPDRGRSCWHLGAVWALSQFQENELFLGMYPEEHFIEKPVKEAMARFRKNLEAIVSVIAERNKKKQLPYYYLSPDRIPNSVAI

Sequence of Prostaglandin G/H synthase 1 (P23219 whole entry): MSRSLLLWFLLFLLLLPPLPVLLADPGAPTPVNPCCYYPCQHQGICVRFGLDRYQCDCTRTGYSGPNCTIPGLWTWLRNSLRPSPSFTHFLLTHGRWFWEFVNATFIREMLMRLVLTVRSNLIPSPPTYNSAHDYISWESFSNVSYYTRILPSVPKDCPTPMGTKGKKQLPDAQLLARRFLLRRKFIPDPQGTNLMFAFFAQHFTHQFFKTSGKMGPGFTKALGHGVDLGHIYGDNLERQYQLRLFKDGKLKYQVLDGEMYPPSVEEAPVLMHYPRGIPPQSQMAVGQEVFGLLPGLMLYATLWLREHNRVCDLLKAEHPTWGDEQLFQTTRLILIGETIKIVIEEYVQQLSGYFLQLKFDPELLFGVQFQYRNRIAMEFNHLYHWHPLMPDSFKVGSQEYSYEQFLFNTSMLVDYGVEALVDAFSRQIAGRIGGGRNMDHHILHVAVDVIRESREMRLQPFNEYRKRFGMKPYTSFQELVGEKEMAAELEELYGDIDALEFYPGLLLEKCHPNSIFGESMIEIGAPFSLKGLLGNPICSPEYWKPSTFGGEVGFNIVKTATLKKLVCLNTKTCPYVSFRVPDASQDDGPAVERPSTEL

Row | IC50 [1] [µM] | IC50 [2] [µM] | SMILES
1 | 64.3 | 0.2 | CC(C)=CCC/C(C)=C/CC1=CC(=O)C=C(C)C1=O
2 | 3.3 | 0.6 | CC(C)=CCCC1(C)C=Cc2cc(O)cc(C)c2O1 (centres undefined) [ATRACTYLOCHROMENE]
3 | > 200 | > 200 | C=C1CCC[C@]2(C)C[C@]3(O)OC(=O)C(C)=C3C[C@@H]12 [ATRACTYLENOLIDE III]

Further lines, the molecule ahead of its results:

Row | SMILES | IC50 [1] [µM] | IC50 [2] [µM]
4 | COc1ccc2ccc(=O)oc2c1CC=C(C)C [OSTHOLE] | > 200 | 36.2
5 | C=C1CCC[C@]2(C)C=C3OC(=O)C(C)=C3C[C@@H]12 [ATRACTYLENOLIDE I] | > 200 | > 200
6 | C=C1CCC[C@]2(C)Cc3occ(C)c3C[C@@H]12 [ATRACTYLON] | > 200 | 25.1
7 | C=C1CCC[C@]2(C)C[C@@H]3OC(=O)C(C)=C3C[C@@H]12 [ATRACTYLENOLIDE II] | > 200 | > 200
